Test results published in patent US5142051A, “N-phosphonylmethoxyalkyl derivatives of pyrimidine and purine bases and a therapeutical composition therefrom with antiviral activity” (Ceskoslovenska Akademie Ved, priority 1986, dated 1992).
Values after ≈ are worked out from the molar mass of the structure shown. Like-named read-outs stand apart in the source and are kept apart here.

Columns and labels:
HSV-1 (KOS) = experiment: Inhibition of virus-induced cytopathic effect in PRK-cells, HSV-1 (KOS); assay type: cell-based; conditions: read-out: MIC50
HSV-1 (F) = experiment: Inhibition of virus-induced cytopathic effect in PRK-cells, HSV-1 (F); assay type: cell-based; conditions: read-out: MIC50
HSV-1 (McIntyre) = experiment: Inhibition of virus-induced cytopathic effect in PRK-cells, HSV-1 (McIntyre); assay type: cell-based; conditions: read-out: MIC50
HSV-2 (G) = experiment: Inhibition of virus-induced cytopathic effect in PRK-cells, HSV-2 (G); assay type: cell-based; conditions: read-out: MIC50
HSV-2 (196) = experiment: Inhibition of virus-induced cytopathic effect in PRK-cells, HSV-2 (196); assay type: cell-based; conditions: read-out: MIC50
HSV-2 (Lyons) = experiment: Inhibition of virus-induced cytopathic effect in PRK-cells, HSV-2 (Lyons); assay type: cell-based; conditions: read-out: MIC50
vaccinia virus (VV) = experiment: microbe, parasite or virus in culture; assay type: cell-based; conditions: Orthopoxvirus vaccinia, PRK, read-out: MIC50
[1] = system: strains or mutants devoid of thymidine kinase; conditions: in words; cited from earlier work
[2] = Cytotoxicity: observable morphological changes in uninfected tissue culture cells; conditions: rabbit, prk cells
HSV-1 TK^- (Cheng) = experiment: Inhibition of virus-induced cytopathic effect in PRK-cells, HSV-1 TK^- (Cheng); assay type: cell-based; conditions: Human alphaherpesvirus 1, PRK, read-out: MIC50
HSV-1 TK^- (Field) = experiment: Inhibition of virus-induced cytopathic effect in PRK-cells, HSV-1 TK^- (Field); assay type: cell-based; conditions: Human alphaherpesvirus 1, PRK, read-out: MIC50
[3] = system: TK^- mutants of herpes viruses type 1 and 2; experiment: Antiviral effect against TK^- mutants of herpes viruses; assay type: cell-based; conditions: in words
vaccinia virus = assay type: cell-based; conditions: in words
DNA viruses = conditions: background statement, in words; cited from earlier work
[4] = in words; cited from earlier work
[5] = Human alphaherpesvirus 1, HSV-1 (KOS), PRK-cells, 50% inhibition of cytopathic effect
[6] = Human alphaherpesvirus 1, HSV-1 (F), PRK-cells, 50% inhibition of cytopathic effect
[7] = Human alphaherpesvirus 1, HSV-1 (McIntyre), PRK-cells, 50% inhibition of cytopathic effect
[8] = Human alphaherpesvirus 2, HSV-2 (G), PRK-cells, 50% inhibition of cytopathic effect
[9] = Human alphaherpesvirus 2, HSV-2 (196), PRK-cells, 50% inhibition of cytopathic effect
[10] = Human alphaherpesvirus 2, HSV-2 (Lyons), PRK-cells, 50% inhibition of cytopathic effect

Compound	EC50 (vaccinia virus (VV))	MCC [2]	EC50 (HSV-1 TK^- (Field))	EC50 (HSV-1 (KOS); [5])	EC50 (HSV-1 (F); [6])	EC50 (HSV-1 (McIntyre); [7])	EC50 (HSV-2 (G); [8])	EC50 (HSV-2 (196); [9])	EC50 (HSV-2 (Lyons); [10])	other results
O=c1[nH]c(=O)n([C@H]2C[C@H](O)[C@@H](CO)O2)cc1C=CBr [5-(2-Bromovinyl)-2'-deoxyuridine, 5-(2-bromovinyl)-2' -deoxyuridine, reference compound]	7 µg/mL (≈ 21 µM)	400 µg/mL	–	–	–	–	–	–	–	EC50 (HSV-1 (KOS); Human alphaherpesvirus 1, PRK): 0.02 µg/mL (≈ 0.06 µM); EC50 (HSV-1 (F); Human alphaherpesvirus 1, PRK): 0.02 µg/mL (≈ 0.06 µM); EC50 (HSV-1 (McIntyre); Human alphaherpesvirus 1, PRK): 0.02 µg/mL (≈ 0.06 µM); EC50 (HSV-2 (G); Human alphaherpesvirus 2, PRK): 4 µg/mL (≈ 12 µM); EC50 (HSV-2 (196); Human alphaherpesvirus 2, PRK): 1 µg/mL (≈ 3 µM); EC50 (HSV-2 (Lyons); Human alphaherpesvirus 2, PRK): 10 µg/mL (≈ 30 µM); sensitivity of strains or mutants devoid of thymidine kinase [1]: usually also resistant
Nc1ccn(C[C@@H](CO)OCP(=O)(O)O)c(=O)n1 [Cytosin-1-yl, (S)--CH2 OH]	0.2 µg/mL (≈ 0.716 µM)	100 µg/mL	7 µg/mL (≈ 25.1 µM)	–	–	–	–	–	–	EC50 (HSV-1 (KOS); Human alphaherpesvirus 1, PRK): 7 µg/mL (≈ 25.1 µM); EC50 (HSV-1 (F); Human alphaherpesvirus 1, PRK): 2 µg/mL (≈ 7.16 µM); EC50 (HSV-1 (McIntyre); Human alphaherpesvirus 1, PRK): 1 µg/mL (≈ 3.58 µM); EC50 (HSV-2 (G); Human alphaherpesvirus 2, PRK): 20 µg/mL (≈ 71.6 µM); EC50 (HSV-2 (196); Human alphaherpesvirus 2, PRK): 2 µg/mL (≈ 7.16 µM); EC50 (HSV-2 (Lyons); Human alphaherpesvirus 2, PRK): 20 µg/mL (≈ 71.6 µM); EC50 (HSV-1 TK^- (Cheng)): 10 µg/mL (≈ 35.8 µM)
Nc1nc2c(ncn2COCCO)c(=O)[nH]1 [Zovirax]	–	–	–	–	–	–	–	–	–	sensitivity of strains or mutants devoid of thymidine kinase [1]: not sensitive
Nc1ncnc2c1ncn2C[C@@H](CO)OCP(=O)(O)O [Adenin-9-yl, (S)--CH2 OH, 9-(S)-(2-phosphonylmethoxy-3-hydroxypropyl)adenine, reference compound]	7 µg/mL (≈ 23.1 µM)	100 µg/mL	–	20 µg/mL (≈ 66 µM)	7 µg/mL (≈ 23.1 µM)	1 µg/mL (≈ 3.3 µM)	20 µg/mL (≈ 66 µM)	7 µg/mL (≈ 23.1 µM)	20 µg/mL (≈ 66 µM)	effect against TK^- mutants of herpes viruses type 1 and 2 [3]: highly effective; effect against vaccinia virus (vaccinia virus): highly effective; antiviral activity (DNA viruses): very potent antivirals, acting specifically against DNA viruses; effect where Zovirax, DHPG fail [1]: effective even in those cases where the above-mentioned drugs fail
Nc1nc2c(ncn2CCOCP(=O)(O)O)c(=O)[nH]1 [Guanin-9-yl, H]	7 µg/mL (≈ 24.2 µM)	40 µg/mL	–	7 µg/mL (≈ 24.2 µM)	2 µg/mL (≈ 6.92 µM)	2 µg/mL (≈ 6.92 µM)	4 µg/mL (≈ 13.8 µM)	2 µg/mL (≈ 6.92 µM)	7 µg/mL (≈ 24.2 µM)	–
Nc1nccc2c1ncn2C[C@@H](CO)OCP(=O)(O)O [3-Deazaadenin-9-yl, (S)--CH2 OH]	–	40 µg/mL	–	0.2 µg/mL (≈ 0.662 µM)	0.2 µg/mL (≈ 0.662 µM)	0.7 µg/mL (≈ 2.32 µM)	0.1 µg/mL (≈ 0.331 µM)	0.7 µg/mL (≈ 2.32 µM)	0.2 µg/mL (≈ 0.662 µM)	–
Cc1cn(C[C@@H](CO)OCP(=O)(O)O)c(=O)[nH]c1=O [Thymin-1-yl, (S)--CH2 OH]	300 µg/mL (≈ 1020 µM)	400 µg/mL	200 µg/mL (≈ 680 µM)	70 µg/mL (≈ 238 µM)	150 µg/mL (≈ 510 µM)	70 µg/mL (≈ 238 µM)	20 µg/mL (≈ 68 µM)	150 µg/mL (≈ 510 µM)	70 µg/mL (≈ 238 µM)	EC50 (HSV-1 TK^- (Cheng)): 400 µg/mL (≈ 1360 µM)
Nc1nc2c(ncn2CC(CO)OCP(=O)(O)O)c(=O)[nH]1 (racemic) [Guanin-9-yl, (RS)--CH2 OH]	2 µg/mL (≈ 6.27 µM)	400 µg/mL	10 µg/mL (≈ 31.3 µM)	20 µg/mL (≈ 62.7 µM)	7 µg/mL (≈ 21.9 µM)	2 µg/mL (≈ 6.27 µM)	20 µg/mL (≈ 62.7 µM)	20 µg/mL (≈ 62.7 µM)	20 µg/mL (≈ 62.7 µM)	–
Nc1ncc2ncn(CCOCP(=O)(O)O)c2n1 [2-Aminopurin-9-yl, H]	200 µg/mL (≈ 732 µM)	200 µg/mL	150 µg/mL (≈ 549 µM)	70 µg/mL (≈ 256 µM)	70 µg/mL (≈ 256 µM)	70 µg/mL (≈ 256 µM)	20 µg/mL (≈ 73.2 µM)	20 µg/mL (≈ 73.2 µM)	7 µg/mL (≈ 25.6 µM)	EC50 (HSV-1 TK^- (Cheng)): 150 µg/mL (≈ 549 µM)
Nc1nc(N)c2ncn(CCOCP(=O)(O)O)c2n1 [2-Aminoadenin-9-yl, H]	70 µg/mL (≈ 243 µM)	200 µg/mL	–	7 µg/mL (≈ 24.3 µM)	2 µg/mL (≈ 6.94 µM)	2 µg/mL (≈ 6.94 µM)	2 µg/mL (≈ 6.94 µM)	2 µg/mL (≈ 6.94 µM)	2 µg/mL (≈ 6.94 µM)	–
NNc1ncnc2c1ncn2CC(CO)OCP(=O)(O)O (racemic) [6-Hydrazinopurin-9-yl, (RS)--CH2 OH]	20 µg/mL (≈ 62.8 µM)	400 µg/mL	40 µg/mL (≈ 126 µM)	150 µg/mL (≈ 471 µM)	70 µg/mL (≈ 220 µM)	70 µg/mL (≈ 220 µM)	70 µg/mL (≈ 220 µM)	70 µg/mL (≈ 220 µM)	70 µg/mL (≈ 220 µM)	–
Nc1nc(N)c2ncn(C[C@@H](CO)OCP(=O)(O)O)c2n1 [2-Aminoadenin-9-yl, (S)--CH2 OH]	0.7 µg/mL (≈ 2.2 µM)	200 µg/mL	–	20 µg/mL (≈ 62.8 µM)	7 µg/mL (≈ 22 µM)	2 µg/mL (≈ 6.28 µM)	4 µg/mL (≈ 12.6 µM)	7 µg/mL (≈ 22 µM)	7 µg/mL (≈ 22 µM)	–
O=P(O)(O)COC(CO)Cn1cnc2c(NO)ncnc21 (racemic) [6-Hydroxylaminopurin-9-yl, (RS)--CH2 OH]	7 µg/mL (≈ 21.9 µM)	400 µg/mL	–	20 µg/mL (≈ 62.7 µM)	20 µg/mL (≈ 62.7 µM)	7 µg/mL (≈ 21.9 µM)	20 µg/mL (≈ 62.7 µM)	20 µg/mL (≈ 62.7 µM)	20 µg/mL (≈ 62.7 µM)	–
Nc1ncnc2c1ncn2CCOCP(=O)(O)O [PMEA, 9-(2-phosphonylmethoxyethyl)adenine]	–	–	–	–	–	–	–	–	–	effect against TK^- mutants of herpes viruses type 1 and 2 [3]: highly effective; effect against vaccinia virus (vaccinia virus): highly effective; antiviral activity (DNA viruses): very potent antivirals, acting specifically against DNA viruses; effect where Zovirax, DHPG fail [1]: effective even in those cases where the above-mentioned drugs fail
Nc1nc2c(ncn2COC(CO)CO)c(=O)[nH]1 [DHPG, 9-(1,3-dihydroxy-2-propoxymethyl)guanine]	–	–	–	–	–	–	–	–	–	sensitivity of strains or mutants devoid of thymidine kinase [1]: not sensitive; water-solubility [4]: low water-solubility
